# Laboratory results reported in patent US20240142474A1, “Opsins as Chemosensory Receptors and Related Methods” (The Regents of the University of California, priority 2021, published 2024).
# Entries after “also recorded” stand apart in the source; their conditions may differ.
# Key:
# [1] = molecular target: T1, OPN3 (Mus musculus, UniProt Q9WUK7); assay: TANGO assay (beta-arrestin recruitment, luciferase reporter) in HTLA cells, OPN3; format: cell-based; conditions: 4 hours
# T1 construct: expressed in transfected cells; host or cells: HTLA cells (HEK293 line with tTA-dependent luciferase reporter and beta-arrestin2-TEV fusion)
# T1 sequence (Q9WUK7 whole entry, the tested form may be a part): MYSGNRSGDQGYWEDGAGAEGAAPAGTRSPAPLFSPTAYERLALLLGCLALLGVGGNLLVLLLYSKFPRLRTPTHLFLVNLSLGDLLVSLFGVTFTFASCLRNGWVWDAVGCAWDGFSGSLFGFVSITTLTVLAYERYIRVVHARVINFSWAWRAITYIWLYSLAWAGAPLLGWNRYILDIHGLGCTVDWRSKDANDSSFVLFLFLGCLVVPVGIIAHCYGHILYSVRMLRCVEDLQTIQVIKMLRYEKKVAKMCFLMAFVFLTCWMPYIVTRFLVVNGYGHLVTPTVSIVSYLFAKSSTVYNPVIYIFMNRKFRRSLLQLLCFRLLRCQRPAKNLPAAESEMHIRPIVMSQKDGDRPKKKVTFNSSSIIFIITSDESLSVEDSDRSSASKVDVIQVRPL
# Source text: (§1) For example, in one implementation the chemosensory opsin activation detection element comprises a TANGO assay (Transcriptional Activation Following Arrestin Translocation), as known in the art, for example, as described by Kroeze et al., 2015. PRESTO-Tango as an open-source resource for interrogation the druggable human GPCRome. Nat Struct Mol Biol 22, 362-369. In the TANGO systems of the invention, a cell is engineered to express a chemosensory opsin in the form of a fusion protein, wherein the opsin fusion protein comprises an optional membrane trafficking signal (e.g. HA), an optional FLAG tag or like epitope to facilitate detection, and a transcriptional activator which induces the expression of a reporter gene, such as luciferase, wherein the transcriptional activator is joined to an intracellular portion of the opsin, for example, the […], by a cleavage sequence. The cells of the TANGO system are further engineered to express a second fusion protein comprising a beta-arrestin fused to a protease, for example, a TEV protease, wherein the protease is capable of cleaving the fusion protein at the cleavage site. The cells of the TANGO system are further engineered to express a reporter protein, e.g. luciferase, under the control of a transcriptional activator, for example, tetracycline-controlled transactivaor (tTA). Ligand binding to the opsin deployed in the TANGO system triggers a conformational change in the opsin that recruits the beta arrestin-protease fusion protein to the opsin, where proximity of the protease induces cleavage of the transcriptional activator, which trafficks to the nucleus and induces the expression of the reporter gene. The TANGO system advantageously allows direct quantification of opsin activation, independent of g protein activity.
# (§2) Human transcriptomics data was mined to identify putative taste receptor proteins. […] However, the role of these opsins in taste perception has not been previously explored. TANGO detection elements employing each of these opsins, in both human and mouse isoforms, were created in HTLA cells (a HEK293 cell line stably expressing a tTA-dependent luciferase reporter and a β-arrestin2-TEV fusion gene), based on protocols in Kroeze et al., 2015. PRESTO-Tango as an open-source resource for interrogation of the druggable human GPCRome. Nat Struct Mol Biol 22, 362-369.
# (§3) In the TANGO assay, the mouse opsin coding sequence with an N-terminal FLAG tag was synthesized. The construct was cloned into a TANGO vector (Addgene, Waterton MA) at the ClaI site (FLAG::opsin). The HTLA cells were transfected in a 6-well format with LIPOFECTAMINE 2000™ (Thermo Fisher Scientific, Inc, Waltham MA, USA) according to the manufacturer's instructions. 6-8 hours post transfection cells weret split 1:3 and the media was switched to DMEM+ 2.5% fetal bovine serum (Thermo Fisher Scientific Inc., Waltham MA, USA). Cells were allowed to grow for 48 hours before splitting the cells onto poly-L-lysine-coated 96-well clear, flat bottom white polystyrene plates in serum-free media. The next day, chemical solutions diluted in TANGO assay buffer (20 mM HEPES, 1× HBSS, pH 7.40) were added to the cells. After 4 hours, the medium and drug solutions were removed and replaced with […] per well of BRIGHTGLO™ reagent (Promega Corporation, Madison WI) diluted 20-fold with TANGO assay buffer. Plates were incubated for 20 minutes at room temperature in the dark before measuring luminescence with a plate reader (Molecular Devices, iD3). The normalized response was calculated using following formula: RLU (relative luminescence units)=test compound RLU−average vehicle control RLU.
# [2] = tested on: OPN3 knockout mice; assay: Mouse brief-access taste assay (lickometer), OPN3 knockout mice compared to wild type; format: in vivo; conditions: water restricted
# Description: Knockout mice were obtained for OPN1SW and OPN3. Two independent OPN3 knockout mice lines were tested for reaction to naringin by a mouse taste preference assay. A Lickometer device (MS-160, Di Log Instruments, Inc.,Tallahassee, FL, USA) was used to train mice and then measure their licking responses to different tastants in brief-access trials. On a given trial, each sipper tube was filled with a solution and made available to a mouse via a small port that opened to a metal/plexiglass chamber housing the animal. The mouse chamber of the lickometer was modified for these studies by adding a plexiglass barrier that restricted the free movement of animals to an approximate 10 by 15 cm area facing the fluid access port. A computer running software that communicated with the lickometer recorded tongue contacts with the metal tip of the sipper tube during licking and the time intervals (precision=1 ms) between consecutive licks (inter-lick intervals). The amount of time that the sipper tube was available through the access port could be programmed and was controlled by the opening of a normally closed, computer-actuated shutter. This feature facilitated presentation of solutions to a mouse for only a few seconds to support measurements of brief-access licking behavior. By indexing initial licking responses to stimuli over short periods, brief-access procedures intend to focus on oral sensory influences and avoid any post-ingestive effect. Groups of three to four mice were run in these studies at one time. Groups always included equal numbers of mutant and wild-type mice to control for temporal factors.
# Training. Mice were restricted from drinking water for 20-22 hours prior to the onset of training. During training, experimentally naive mice learned to receive fluid in the lickometer over a 3-day period. On the first and second day of training, mice were given 30 minutes free access to a single sipper tube of water to familiarize them with accessing fluid in the lickometer device. Each 30 minute period began when the mouse made its first lick on the sipper tube; mice were allowed 30 minutes to make their first lick. On the third day of training, mice were presented with 10 second presentations (i.e., trials) of water to familiarize them with receiving and consuming fluid under a brief-access procedure in the lickometer. On each trial, the shutter that blocked access to the sipper tube was opened and mice were given 10 seconds to lick, and lick data were recorded by the lickometer computer. […]
# Testing. […] For studies, individual Opn3KO, Opn1swKO, Opn4KO, Opn5KO and wild-type mice were evaluated for brief-access licking responses with different agonists. […]
# [3] = molecular target: T2, OPN3 (Homo sapiens, UniProt Q9H1Y3); assay: Calcium flux GPCR activation assay with Fluo-8 dye, opsin-expressing HEK293T cells, OPN3; format: cell-based; conditions: Fluo-8 calcium flux, data not shown
# T2 construct: expressed in transfected cells; host or cells: HEK293T
# T2 sequence (Q9H1Y3 whole entry): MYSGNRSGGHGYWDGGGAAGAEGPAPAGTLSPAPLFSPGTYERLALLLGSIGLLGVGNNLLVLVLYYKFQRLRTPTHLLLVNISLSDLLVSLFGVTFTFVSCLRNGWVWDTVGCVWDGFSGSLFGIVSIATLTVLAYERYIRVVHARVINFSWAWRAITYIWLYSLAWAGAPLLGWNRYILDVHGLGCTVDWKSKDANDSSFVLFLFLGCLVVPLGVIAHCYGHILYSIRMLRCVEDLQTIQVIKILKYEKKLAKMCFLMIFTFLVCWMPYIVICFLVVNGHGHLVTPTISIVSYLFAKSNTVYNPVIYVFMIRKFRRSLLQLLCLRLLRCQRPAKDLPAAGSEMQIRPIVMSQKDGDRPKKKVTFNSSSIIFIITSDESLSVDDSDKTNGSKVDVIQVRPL
# Description: (§4) These foregoing TANTO results were further confirmed using a second, a calcium flux GPCR activation assay employing Fluo-8 dye, as follows. For this intracellular Ca^2+ measurement, opsin-expressing HEK293T cells were seeded onto 96-well plates (4×10^4 cells per well) in 100 μl of culture medium with reduced serum contents (0.5% of FBS) per well and incubated overnight under standard culture conditions. [Ca2+]i level was assessed the next day after stimulation with bitter compounds used at a different concentration with the SCREEN QUEST Fluo-8 No Wash Calcium Assay Kit (AAT Bioquest, Inc., Sunnyvale, CA, USA) according to the supplier's protocol. Calcium flux was monitored simultaneously by the change in fluorescence (Ex/Em=490/520 nm) following stimulation and with respect to the background fluorescence. [Ca^2+]i was monitored for a period of three minutes, starting before the addition of compounds to the wells and continuing during measurement of the fluorescent signal following cells' stimulation. The obtained fluorescence reads were normalized to the results obtained after stimulation of the cells with the compound solvent.
# [4] = molecular target: T3, OPN1SW (Mus musculus, UniProt P51491); assay: TANGO assay (beta-arrestin recruitment, luciferase reporter) in HTLA cells, OPN1SW; format: cell-based; conditions: 4 hours
# T3 construct: expressed in transfected cells; host or cells: HTLA cells (HEK293 line with tTA-dependent luciferase reporter and beta-arrestin2-TEV fusion)
# T3 sequence (P51491 1-346): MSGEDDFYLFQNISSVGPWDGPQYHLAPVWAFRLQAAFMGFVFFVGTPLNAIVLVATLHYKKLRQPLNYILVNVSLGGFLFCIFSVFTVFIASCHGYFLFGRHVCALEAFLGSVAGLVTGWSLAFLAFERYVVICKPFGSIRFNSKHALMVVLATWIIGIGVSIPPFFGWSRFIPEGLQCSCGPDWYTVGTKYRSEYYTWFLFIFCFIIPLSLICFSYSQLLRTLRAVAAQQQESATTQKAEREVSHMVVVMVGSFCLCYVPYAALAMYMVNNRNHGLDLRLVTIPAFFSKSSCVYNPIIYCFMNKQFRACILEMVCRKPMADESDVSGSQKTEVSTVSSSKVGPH
# Source text: as §1, §2, §3
# [5] = molecular target: T4, OPN1SW (Homo sapiens, UniProt P03999); assay: Calcium flux GPCR activation assay with Fluo-8 dye, opsin-expressing HEK293T cells, OPN1SW; format: cell-based; conditions: Fluo-8 calcium flux, data not shown
# T4 construct: expressed in transfected cells; host or cells: HEK293T
# T4 sequence (P03999 1-345): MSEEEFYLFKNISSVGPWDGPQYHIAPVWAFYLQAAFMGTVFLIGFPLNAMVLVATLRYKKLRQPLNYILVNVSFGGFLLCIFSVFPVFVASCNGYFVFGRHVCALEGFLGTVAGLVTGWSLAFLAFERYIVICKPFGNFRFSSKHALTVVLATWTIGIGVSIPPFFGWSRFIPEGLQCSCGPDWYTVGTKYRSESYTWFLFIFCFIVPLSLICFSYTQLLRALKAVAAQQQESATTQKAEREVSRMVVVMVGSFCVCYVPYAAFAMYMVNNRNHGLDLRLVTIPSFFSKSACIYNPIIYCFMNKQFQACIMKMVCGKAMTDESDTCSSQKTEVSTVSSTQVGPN
# Description: as §4
Compound,"activation of OPN3, fold-change from baseline luciferase signal vs. log concentration of tastant [1]",activation of calcium dye OPN3 detection elements [3],also measured
Oc1cc(O)c2c(c1)O[C@H](c1cc(O)c(O)c(O)c1)[C@H](O)C2 [Epigallocatechin],activated OPN3,–,"aversion to the bitter flavor (lick ratio), OPN3 knockout mice compared to wild type mice [2]: reduced aversion"
N#C[C@H](O[C@@H]1O[C@H](CO[C@@H]2O[C@H](CO)[C@@H](O)[C@H](O)[C@H]2O)[C@@H](O)[C@H](O)[C@H]1O)c1ccccc1 [amygdalin],activation of OPN3; also recorded: activated,significantly activated in a concentration dependent manner,–
OC[C@H]1O[C@@H](Oc2ccc(O)cc2)[C@H](O)[C@@H](O)[C@@H]1O [arbutin],activation of OPN3; also recorded: activated,significantly activated in a concentration dependent manner,–
CC1=CC(=O)[N-]S(=O)(=O)O1.[K+] [asulfame potassium],activation of OPN3,–,"activation of OPN1SW, fold-change from baseline luciferase signal vs. log concentration of tastant [4]: activation of OPN1SW"
O=C(O[C@@H]1Cc2c(O)cc(O)cc2O[C@@H]1c1cc(O)c(O)c(O)c1)c1cc(O)c(O)c(O)c1 [epigallocatechin gallate],activation of OPN3,–,–
O=c1c(-c2ccc(O)cc2)coc2cc(O)cc(O)c12 [genistein],–,–,"activation of OPN1SW, fold-change from baseline luciferase signal vs. log concentration of tastant [4]: activated; activation of OPN1SW, fold-change from baseline luciferase signal vs. log concentration of tastant ([4]; listed as genestein): activation of OPN1SW; activation of calcium dye OPN1SW detection elements [5]: significantly activated in a concentration dependent manner"
CC1(C)O[C@H]2CC(=O)OC[C@]23[C@H]2CC[C@@]4(C)[C@H](c5ccoc5)OC(=O)[C@H]5O[C@]54[C@]2(C)C(=O)C[C@@H]13 [limonin],–,–,"activation of OPN1SW, fold-change from baseline luciferase signal vs. log concentration of tastant [4]: activation of OPN1SW; also recorded: activated; activation of calcium dye OPN1SW detection elements [5]: significantly activated in a concentration dependent manner"
O=c1c(O)c(-c2cc(O)c(O)c(O)c2)oc2cc(O)cc(O)c12 [myricetin],activation of OPN3,–,–
COc1ccc2c(c1OC)C(=O)O[C@@H]2[C@H]1c2c(cc3c(c2OC)OCO3)CCN1C [noscapine],activation of OPN3; also recorded: activated,significantly activated in a concentration dependent manner,–
"OC[C@H]1O[C@@H](Oc2ccccc2)[C@H](O)[C@@H](O)[C@@H]1O [phe-β-Glu, Phenyl-β-D-glucopyranoside]",activated,significantly activated in a concentration dependent manner,"activation of OPN3, fold-change from baseline luciferase signal vs. log concentration of tastant ([1]; listed as Phenyl-β-D-glucopyranoside): activation of OPN3"
O=c1c(O)c(-c2ccc(O)c(O)c2)oc2cc(O)cc(O)c12 [quercetin],activated OPN3; also recorded: activation of OPN3,–,"aversion to the bitter flavor (lick ratio), OPN3 knockout mice compared to wild type mice [2]: reduced aversion"
catechin,activated OPN3; also recorded: activation of OPN3,–,"aversion to the bitter flavor (lick ratio), OPN3 knockout mice compared to wild type mice [2]: reduced aversion"
